Key:
[1] = molecular target: Bcl-xL (Homo sapiens, UniProt Q07817); experiment: Bcl-xL binding affinity analysis (fluorescence polarization binding assay); details: read-out: BcI-XI (Ki, Bcl-xL binding affinity)
[2] = molecular target: Bcl-2 (Homo sapiens, UniProt P10415); experiment: Bcl-2 binding affinity analysis (fluorescence polarization binding assay); details: read-out: BcI2 (Ki, Bcl-2 binding affinity)
Bcl-2, sequence (P10415 whole entry): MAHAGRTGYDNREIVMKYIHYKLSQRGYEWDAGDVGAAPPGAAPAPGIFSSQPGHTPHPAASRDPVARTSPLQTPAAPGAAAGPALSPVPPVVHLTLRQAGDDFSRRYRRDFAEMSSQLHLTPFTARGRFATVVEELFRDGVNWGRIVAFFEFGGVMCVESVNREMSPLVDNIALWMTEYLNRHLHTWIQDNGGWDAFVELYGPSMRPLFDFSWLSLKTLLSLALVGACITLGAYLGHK

Bcl-xL, sequence (Q07817 whole entry): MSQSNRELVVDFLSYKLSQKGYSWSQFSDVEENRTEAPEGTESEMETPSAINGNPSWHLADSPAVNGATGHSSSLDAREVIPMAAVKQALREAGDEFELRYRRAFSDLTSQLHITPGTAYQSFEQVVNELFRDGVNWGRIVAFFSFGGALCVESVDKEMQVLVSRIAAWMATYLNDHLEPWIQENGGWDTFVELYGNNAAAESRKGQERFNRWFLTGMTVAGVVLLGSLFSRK

Compound: COc1c(CN2O[C@@H](CO)[C@@H]([C@H](C)O)[C@H]2C(=O)N[C@H]2C[C@H]3C[C@@H]([C@@H]2C)C3(C)C)cccc1-c1cc(C(=O)N[C@@H](Cc2ccccc2)CN(C)C)cc(N(C)CCO)c1 [Compound 285]
- Ki [1]: < 1 µM
- Ki [2]: < 0.001 µM

Compound: COc1c(CN2O[C@@H](CO)[C@@H]([C@H](C)O)[C@H]2C(=O)N[C@H]2C[C@H]3C[C@@H]([C@@H]2C)C3(C)C)cccc1-c1cc(C(=O)N[C@H](CN(C)C)[C@@H](NS(C)(=O)=O)c2ccccc2)cc(N(C)CCO)c1 [Compound 290]
- Ki [1]: < 1 µM
- Ki [2]: < 0.001 µM

Compound: COc1c(CN2O[C@@H](CO)[C@@H]([C@H](C)O)[C@H]2C(=O)N[C@H]2C[C@H]3CC([C@@H]2C)C3(C)C)cccc1-c1cc(C(=O)N[C@@H](Cc2ccccc2)CN(C)C)cc(N2CCC[C@@H]2CO)c1 [Compound 296]
- Ki [1]: < 1 µM
- Ki [2]: < 0.001 µM

Compound: COc1c(CN2O[C@@H](CO)[C@@H]([C@H](C)O)[C@H]2C(=O)N[C@H]2C[C@H]3C[C@@H]([C@@H]2C)C3(C)C)cccc1-c1cc(C(C)=O)cc(C(=O)N[C@@H](Cc2ccccc2)CN(C)C)c1 [Compound 299]
- Ki [1]: < 1 µM
- Ki [2]: < 0.001 µM

Compound: COc1c(CN2O[C@@H](CN)[C@@H]([C@H](C)O)[C@H]2C(=O)N[C@H]2C[C@H]3C[C@@H]([C@@H]2C)C3(C)C)cccc1-c1cc(C(=O)N[C@@H](Cc2ccccc2)CN(C)C)cc(N(C)CCO)c1 [Compound 302]
- Ki [1]: 1 to 5 µM
- Ki [2]: < 0.001 µM

Compound: COc1c(CN2O[C@@H](CO)[C@@H]([C@H](C)O)[C@H]2C(=O)N[C@H]2C[C@H]3C[C@@H]([C@@H]2C)C3(C)C)cccc1-c1cc(C(=O)N[C@@H](Cc2ccccc2)CN(C)C)cc(N(C)CC(=O)O)c1 [Compound 306]
- Ki [1]: < 1 µM
- Ki [2]: < 0.001 µM

Compound: COc1c(CN2O[C@@H](CO)[C@@H]([C@H](C)O)[C@H]2C(=O)N[C@H]2C[C@H]3C[C@@H]([C@@H]2C)C3(C)C)cccc1-c1cc(C(=O)N[C@@H](Cc2ccccc2)CN(C)C)cc(N(C)CC(=O)N(C)C)c1 [Compound 308]
- Ki [1]: < 1 µM
- Ki [2]: < 0.001 µM

Compound: CNC(=O)CN(C)c1cc(C(=O)N[C@@H](Cc2ccccc2)CN(C)C)cc(-c2cccc(CN3O[C@@H](CO)[C@@H]([C@H](C)O)[C@H]3C(=O)N[C@H]3C[C@H]4C[C@@H]([C@@H]3C)C4(C)C)c2OC)c1 [Compound 309]
- Ki [1]: < 1 µM
- Ki [2]: < 0.001 µM

Compound: COc1c(CN2O[C@@H](CO)[C@@H]([C@H](C)O)[C@H]2C(=O)N[C@H]2C[C@H]3C[C@@H]([C@@H]2C)C3(C)C)cccc1-c1cc(C(=O)N[C@@H](Cc2ccccc2)CN(C)C)cc(N(C)CC(N)=O)c1 [Compound 310]
- Ki [1]: < 1 µM
- Ki [2]: < 0.001 µM

Compound: COc1c(CN2O[C@@H](CO)[C@@H]([C@H](C)O)[C@H]2C(=O)N[C@H]2C[C@H]3C[C@@H]([C@@H]2C)C3(C)C)cccc1-c1cc(C(=O)N(C)[C@@H](Cc2ccccc2)CN(C)C)cc(N(C)C)c1 [Compound 311]
- Ki [1]: < 1 µM
- Ki [2]: < 0.001 µM

Compound: CCN1CCC[C@@H]1CNC(=O)c1cc(-c2cccc(CN3O[C@@H](CO)[C@@H]([C@H](C)O)[C@H]3C(=O)N[C@H]3C[C@H]4C[C@@H]([C@@H]3C)C4(C)C)c2OC)cc(N(C)C)c1 [Compound 312]
- Ki [1]: < 1 µM
- Ki [2]: < 0.001 µM

Compound: COc1c(CN2O[C@@H](CO)[C@@H]([C@H](C)O)[C@H]2C(=O)N[C@H]2C[C@H]3C[C@@H]([C@@H]2C)C3(C)C)cccc1-c1cc(C(=O)N[C@H](Cc2ccccc2)CN2CCN(C)CC2)cc(N(C)C)c1 [Compound 313]
- Ki [1]: < 1 µM
- Ki [2]: < 0.001 µM

Compound: COc1c(CN2O[C@@H](CO)[C@@H]([C@H](C)O)[C@H]2C(=O)N[C@H]2C[C@H]3C[C@@H]([C@@H]2C)C3(C)C)cccc1-c1cc(C(=O)N[C@@H](CC(C)C)CN2CCN(C)CC2)cc(N(C)C)c1 [Compound 314]
- Ki [1]: < 1 µM
- Ki [2]: < 0.001 µM

Compound: COc1c(CN2O[C@@H](CO)[C@@H]([C@H](C)O)[C@H]2C(=O)N[C@H]2C[C@H]3C[C@@H]([C@@H]2C)C3(C)C)cccc1-c1cc(C(=O)N[C@@H](CC(C)C)CN2CCCC2)cc(N(C)C)c1 [Compound 320]
- Ki [1]: < 1 µM
- Ki [2]: < 0.001 µM

Compound: COc1c(CN2O[C@@H](CO)[C@@H]([C@H](C)O)[C@H]2C(=O)N[C@H]2C[C@H]3C[C@@H]([C@@H]2C)C3(C)C)cc(Cl)cc1-c1cc(C(=O)NCCc2ccccc2)cc(N(C)C)c1 [Compound 321]
- Ki [1]: 5 to 10 µM
- Ki [2]: > 0.009 µM
